For test [1], the system named is Staphylococcus hominis DSM 20328. The test is described as follows: Determination of the Minimum Inhibitory Concentration (MIC value) in microtitre plates, Staphylococcus hominis. The following applies: Staphylococcus hominis, DSM20328, 48 h, Staphylococcus hominis DSM 20328; CASO broth, 48 hours at 37° C.; MIC = ≦20% growth (optical density at 620 nm); read-out: MIC [μg/ml] SH. Format: cell-based. The protocol:
(§1) Determination of the Minimum Inhibitory Concentration (MIC Value) in Microtitre Plates
Casein-soybean flour-peptone broth for preparation of pre-cultures of test bacteria and yeast.
Staphylococcus hominis DSM 20328 […]
(§2) The test substances are pre-dissolved in dimethyl sulfoxide (DMSO) and tested in a dilution series of 1:2.
(§3) The bacteria are cultured overnight in CASO broth and washed off using 10 ml of 0.85% sodium chloride solution (+0.1% Triton X-100).
(§4) All the test organisms are adjusted to an organism count of 1-5×10^6 CFU/ml using 0.85% sodium chloride solution.
(§5) The test substances are pre-pipetted into microtitre plates in amounts of 8 μl per well.
(§6) Pre-diluted test organism suspensions are diluted 1:100 in CASO broth.
(§7) The test batches are incubated for 48 hours at 37° C.
(§8) After incubation, the growth is determined on the basis of the turbidity of the test batches (optical density) at 620 nm in a microplate reader.
(§9) The minimum inhibitory concentration (MIC value) is the concentration of substance at which there is found (compared to the growth of the control) an appreciable inhibition of growth (≦20% growth) of the test organisms.
(§10) One microtitre plate is used for each test organism and substance concentration.
(§11) All the substances are tested in duplicate.

Test [2] concerns Escherichia coli NCTC 8196. In words: Determination of the Minimum Inhibitory Concentration (MIC value) in microtitre plates, Escherichia coli. The following applies: Escherichia coli NCTC 8196, CASO broth, 48 hours at 37° C., MIC = ≦20% growth (optical density at 620 nm); for MIC: Escherichia coli, NCTC8196, 48 h, read-out: MIC [μg/ml] EC. Format: cell-based. The protocol:
as §1
Casein-soybean flour-peptone broth for preparation of pre-cultures of test bacteria and yeast. […]
Escherichia coli NCTC 8196
as §2, §3, §4, §5, §6, §7, §8, §9, §10, §11

In the case of `CCCCCCCCCCCCOc1ccc(CN2CCCCC2)cc1OC` [Compound of formula (3)], the values for the MIC in test [1] and in test [2] were 3.75 µg/mL and greater than 120 µg/mL, respectively.
Consider `CCCCCCCCCCCCOc1ccc(CN2CCCC2)cc1OC` [Compound of formula (4)], for which the “MIC [μg/ml] EC” value in test [2] came to 30 µg/mL.
As to `CCCCCCOc1ccc(CN2CCCCC2)cc1OC` [Compound of formula (5)], the MIC in test [1] and in test [2] was greater than 120 µg/mL in each case.
As to `CCCCCCOc1ccc(CN2CCCC2)cc1OC` [Compound of formula (6)], the MIC in test [1] and in test [2] was greater than 120 µg/mL in each case.
With `CCCCCCCCCCCCOc1ccc(CN(C)CCc2ccccn2)cc1OC` [Compound of formula (7)], the figures for the MIC in test [1] and in test [2] were 60 µg/mL and greater than 120 µg/mL, respectively.
In the same order, the values of `CCCCCCCCCCCCOc1ccc(CN2CCOCC2)cc1OC` [Compound of formula (8)] are greater than 120 µg/mL and greater than 120 µg/mL.
The like results for `CCCCCCCCCCCCOc1ccc(CN(C)CCCC)cc1OC` [Compound of formula (9)] were, in that order, 15 µg/mL and greater than 120 µg/mL.
As to `CCCCCCCCCCCCOc1ccc(CN2CCCCCC2)cc1OC` [Compound of formula (10)], the MIC in test [1] is 3.75 µg/mL; in test [2], greater than 120 µg/mL.
In the same order, the values of `CCCCCCCCCCCCOc1ccc(CN(C(C)C)C(C)C)cc1OC` [Compound of formula (11)] are greater than 120 µg/mL and greater than 120 µg/mL.
In the same order, the values of `CCCCCCCCCCCCOc1ccc(CN2CCN(C)CC2)cc1OC` [Compound of formula (12)] are 3.75 µg/mL and 120 µg/mL.
The like results for `CCCCCCCCCCCCOc1ccc(CN(CC)CC)cc1OC` [Compound of formula (13)] were, in that order, 3.75 µg/mL and greater than 120 µg/mL.
On to `CCCCCCCCCCCCOc1ccc(CN2CCN(C(C)=O)CC2)cc1OC` [Compound of formula (14)], for which the MIC in test [1] and in test [2] was greater than 120 µg/mL in each case.
On to `CCCCCCCCCCCCOc1ccc(CN(C)Cc2ccccc2)cc1OC` [Compound of formula (15)], for which the MIC in test [1] was 15 µg/mL; in test [2], greater than 120 µg/mL.
In the same order, the values of `CCCCCCCCCCCCOc1ccc(CN(C)CCCCCC)cc1OC` [Compound of formula (16)] are 120 µg/mL and greater than 120 µg/mL.
Turning to `CCCCCCCCCCCCOc1ccc(CN2CCN(CC)CC2)cc1OC` [Compound of formula (17)], the MIC was 7.5 µg/mL in test [1] and greater than 120 µg/mL in test [2].
On to `CCCCCCCCCCCCOc1ccc(CN2CCCC2)cc1OC` [Compound of formula (18)], for which the MIC was 3.75 µg/mL in test [1] and 15 µg/mL in test [2].
In the same order, the values of `CCCCCCCCCCCCOc1ccc(CN(C)CCCCCCCCCCCC)cc1OC` [Compound of formula (19)] are greater than 120 µg/mL and greater than 120 µg/mL.
In the same order, the values of `CCCCCCCCCCCCOc1ccc(CN(C)C)cc1OC` [Compound of formula (20)] are 7.5 µg/mL and 15 µg/mL.
As for `CCCCCCCCCCCCOc1ccc(CN2CCNCC2)cc1OC` [Compound of formula (21)], the MIC in test [1] and in test [2] was greater than 120 µg/mL in each case.
`CCCCCCCCCCCCOc1ccc(CN2CCN(c3cccc(OC)c3)CC2)cc1OC` [Compound of formula (22)]: the MIC in test [1] and in test [2] was greater than 120 µg/mL throughout.
As for `CCCCCCOc1ccc(CN(C)CCc2ccccn2)cc1OC` [Compound of formula (23)], the MIC in test [1] was 60 µg/mL; in test [2], greater than 120 µg/mL.
In the same order, the values of `CCCCCCOc1ccc(CN2CCOCC2)cc1OC` [Compound of formula (24)] are greater than 120 µg/mL and greater than 120 µg/mL.
In the same order, the values of `CCCCCCOc1ccc(CN(C)CCCC)cc1OC` [Compound of formula (25)] are greater than 120 µg/mL and greater than 120 µg/mL.
In the same order, the values of `CCCCCCOc1ccc(CN2CCCCCC2)cc1OC` [Compound of formula (26)] are greater than 120 µg/mL and greater than 120 µg/mL.

Values taken from US20040006061A1, “Alkoxybenzylamine” (priority 2001, published 2004).
